The text below walks through data of the METLIN SMRT retention time set (Domingo-Almenara et al. 2019).

The nature of the data set: gradient 5% acetonitrile 3 min, to 50% in 2 min, to 85% in 15 min, held 3 min, 100 µL/min. The settings on record: column: Zorbax Extend-C18 2.1 x 50 mm; eluents: water / acetonitrile, 0.1% formic acid. Summed up:
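Each retention time is based on an adduct peak selected computationally and verified by manual inspection. Measurements used HPLC–quadrupole time-of-flight mass spectrometry in positive and negative ionization mode on mixtures of ~100 pure standards. Chromatography ran on a Zorbax Extend-C18 column (2.1 × 50 mm, 1.8 μm) at 100 μL/min with water and acetonitrile, each containing 0.1% formic acid, and dead and dwell volumes of 40 μL and 900 μL.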
Take `Cc1nc(N2CCOCC2)c2c(C)c(C(=O)Nc3cccc(Cl)c3C)sc2n1`: the RP-LC retention time was 885 s.

Compound `Cc1nn(CC(=O)N2CCOCC2)c(=O)c2c(-n3cccc3)n(-c3ccc(F)cc3)nc12` yielded an RP-LC retention time of 809 s.

Turning to `Cc1ccc(-c2noc(-c3cccc(S(=O)(=O)NCCCN4CCCCCC4)c3)n2)cc1`, the RP-LC retention time turned out to be 832 s.

With `O=C(C1CC(=O)N(c2ccc(F)cc2)C1)N1CC(c2nc(-c3ccccn3)no2)C1` (stereo not drawn), the RP-LC retention time is 650 s.

`CC(C)Cc1ccc(S(=O)(=O)N2CCc3c(c(-c4nnc(-c5ccccc5)o4)nn3C)C2)cc1` showed an RP-LC retention time of 1150 s.

In turn, `CCN1CCN(CCCNC(=O)c2ccc3nc(C(C)C)oc3c2)CC1` yielded an RP-LC retention time of 667 s.

`Cc1ccc(-c2nnc(Cc3nc(-c4cccc(Cl)c4)no3)o2)cc1F`: the RP-LC retention time stood at 1170 s.

In turn, `Cc1ccc2c(Nc3ccc(C)c(Cl)c3)c(C(=O)N3CCOCC3)cnc2n1` yielded an RP-LC retention time of 610 s.

The compound `Cc1ncoc1C(=O)N1CCC(c2noc(-c3cnccn3)n2)C1` (stereo not drawn) had an RP-LC retention time of 620 s.

As for `CC(NC(=O)C1CCN(S(=O)(=O)c2ccc(Cl)cc2)CC1)C(=O)N1CCCc2ccccc21` (stereo not drawn), the RP-LC retention time came out at 945 s.

Take `O=C(NCCc1ccccc1)C(=O)c1ccc[nH]1`: the RP-LC retention time was found to be 824 s.

`CCC(C)(C)NC(=O)CCNc1c(-c2ccc(F)cc2)nc2cnccn12` showed an RP-LC retention time of 754 s.

`COc1ccc(CCNC(=O)CCn2c(=O)sc3ccccc32)cc1OC` gave an RP-LC retention time of 698 s.

Regarding `Cc1nc(-c2noc(-c3ccccc3)n2)cn1CC(=O)N1CCc2ccccc21`, the RP-LC retention time was 860 s.

For `Cc1cc(C)cc(NC(=O)C2CCCN(c3nc4ccsc4c(=O)n3-c3cccc(C)c3)C2)c1` (stereo not drawn), the RP-LC retention time is 1100 s.

In the case of `Cc1ccc(C(=O)Nc2cnc(-c3cccc(Cl)c3)nc2)s1`, the RP-LC retention time is 1140 s.

`O=C(Nc1ccc(C2(C(=O)N3CCN(c4ccccc4F)CC3)CCC2)cc1)C1CC1` showed an RP-LC retention time of 944 s.

`Cc1cc(NS(=O)(=O)c2cc(-c3ccn[nH]3)sc2C)ccc1Br` had an RP-LC retention time of 908 s.

`COC(=O)c1ccc2c(=O)n(-c3ccc4c(c3)OCO4)c(N3CCN(c4ccccn4)CC3)nc2c1` returned an RP-LC retention time of 660 s.

For `CCOC(=O)c1ccc(Nc2c(CC)c(C)nc3nc(-c4ccccc4)nn23)cc1`, the RP-LC retention time came to 990 s.

In turn, `CSc1cccc(NC(=O)Nc2cccc(-c3ccc(N4CCCC4)nn3)c2)c1` showed an RP-LC retention time of 712 s.

For the compound `Fc1ccc(-c2noc(Cc3nnc(-c4cc(F)cc(F)c4)o3)n2)cc1`, the RP-LC retention time was found to be 1030 s.

`Cc1ccc(-c2noc(-c3ccc(=O)n(Cc4ccc(Cl)cc4)c3)n2)cc1` displayed an RP-LC retention time of 1230 s.

In turn, `Cc1cc(Br)ccc1NC(=O)CCc1c(-c2ccc(F)cc2)nc2ccccn12` returned an RP-LC retention time of 728 s.

The compound `Cc1c(NC(=O)Cc2csc(NC(=O)C(C)(C)C)n2)c(=O)n(-c2ccccc2)n1C` came in with an RP-LC retention time of 630 s.

For the compound `CCOC(=O)C1CCN(C(=O)C2CN(C(=O)c3ccncc3)CC23CCCCC3)CC1` (stereo not drawn), the RP-LC retention time came out at 703 s.

Take `COc1ccc(-c2cc(=O)c3c(O)c(OC)c(OC)cc3o2)cc1O`: the RP-LC retention time was found to be 906 s.

For `Cc1cccc(C)c1NC(=O)Cn1nc(N2CCC(C)CC2)c2ccccc2c1=O`, the RP-LC retention time came to 1240 s.

Regarding `COc1cccc(CCC(=O)N2C[C@@H]3C[C@H](NC(=O)c4cccs4)[C@H]2C3)c1`, the RP-LC retention time worked out at 728 s.

The compound `O=C(C1CCN(S(=O)(=O)c2ccc(-c3noc(C4CCCC4)n3)cc2)CC1)N1CCCC1` registered an RP-LC retention time of 1030 s.

The compound `COc1cc(NC(=O)CN2CCN(c3ccccn3)CC2)cc(OC)c1` came in with an RP-LC retention time of 587 s.

With `Cc1nc2c(sc3nc(-c4ccccc4)ccc32)c(=O)n1CC(=O)NCc1cccs1`, the RP-LC retention time came to 750 s.

With `Cn1c(=O)n(CC(=O)Nc2cccc(Cl)c2)c(=O)c2cnc(-c3ccccc3)nc21`, the RP-LC retention time turned out to be 1050 s.

The compound `COc1ccc(OC)c(NS(=O)(=O)c2ccc3c(c2)-c2oncc2CO3)c1` came in with an RP-LC retention time of 889 s.

The compound `O=C(CN1CCN(C(=O)Nc2ccc(Br)cc2)CC1=O)N1CCCCC1` registered an RP-LC retention time of 701 s.

Consider `O=C(NCc1ccccc1C(F)(F)F)C1CCN(c2nnc(-c3ccccc3)o2)CC1`, for which the RP-LC retention time is 892 s.

In the case of `COc1ccc(-c2noc(CCCC(=O)Nc3nc(-c4ccccc4)cs3)n2)cc1`, the RP-LC retention time stood at 1060 s.

On to `CCNC(=O)N1CCc2nc(-c3ccc(F)cc3)ncc2C1`, for which the RP-LC retention time is 752 s.

Regarding `CCn1cnc(S(=O)(=O)N2CCCC(C(=O)NCc3ccccc3C)C2)c1` (stereo not drawn), the RP-LC retention time was 726 s.

Take `CCOc1ccc(S(=O)(=O)N2CCCC(C(=O)Nc3ccc(S(N)(=O)=O)cc3)C2)cc1C` (stereo not drawn): the RP-LC retention time was 876 s.

For `COc1ccc(-n2nc(C(F)(F)F)cc2-c2ccc(Cl)cc2)cc1`, the RP-LC retention time was found to be 1250 s.

Regarding `CN(CC(=O)O)c1nc2c(Cl)cc(Cl)cc2s1`, the RP-LC retention time is 888 s.

Take `Cc1ccc(C(=O)N2C(C(=O)NCc3ccco3)COC23CCN(C(=O)C(C)(C)C)CC3)cc1` (stereo not drawn): the RP-LC retention time came to 756 s.

`Cn1cc(C(CNC(=O)Nc2ccccc2F)c2cccnc2)c2ccccc21` (stereo not drawn) showed an RP-LC retention time of 682 s.

`O=C(NCCC1=CCCCC1)C1CCCN(c2cnc3nccnc3c2)C1` (stereo not drawn) came in with an RP-LC retention time of 766 s.

In turn, `O=C(Cn1ncc2c3ccccc3n(Cc3ccc(F)cc3)c2c1=O)N1CCN(c2ccccn2)CC1` showed an RP-LC retention time of 689 s.

As for `COc1ccc(C(=O)Nc2nccnc2C(=O)NCC2CCCCC2)cc1`, the RP-LC retention time stood at 1120 s.

The compound `CCC1Oc2ccc(S(=O)(=O)N3CCC(C(=O)NCc4ccc(OC)cc4)CC3)cc2NC1=O` (stereo not drawn) yielded an RP-LC retention time of 839 s.

The compound `Cc1cc(C)cc(NC(=O)C2CCN(S(C)(=O)=O)c3cc(Cl)ccc3O2)c1` (stereo not drawn) showed an RP-LC retention time of 1020 s.

With `COc1ccc(C(=O)N2CCN(c3cc(-c4cccs4)[nH]n3)CC2)cc1F`, the RP-LC retention time worked out at 837 s.

Compound `CCc1ccc(N2CCn3c2nc2c3c(=O)n(CC(=O)O)c(=O)n2C)cc1` showed an RP-LC retention time of 785 s.

Compound `COc1cccc(-n2cc(-c3nc(-c4ccccn4)no3)c3ccccc3c2=O)c1` returned an RP-LC retention time of 966 s.

Regarding `Cc1nn(-c2ccccc2)c(C)c1S(=O)(=O)N1CCC(C(=O)NC2CCCCCC2)CC1`, the RP-LC retention time amounted to 965 s.

As for `Cc1ccc(NC(=O)CSc2ccc(N3CCCC(C(=O)NC4CC4)C3)nn2)c(Cl)c1` (stereo not drawn), the RP-LC retention time is 705 s.

Take `OC(COCC(c1ccccc1)c1ccccc1)Cn1cnc2ccccc21` (stereo not drawn): the RP-LC retention time worked out at 639 s.

Compound `Cc1cc(NC(=O)NC2CCN(c3nc4ccccc4n(C)c3=O)CC2)ccc1Br` displayed an RP-LC retention time of 1050 s.

Regarding `Cc1noc(/C=C\c2ccc(S(=O)(=O)N3CCN(c4ncccn4)CC3)cc2)c1NC(=O)C1CC1`, the RP-LC retention time came out at 849 s.

In the case of `COc1cccc(-c2nnc(Cc3nc(-c4ccncc4)no3)o2)c1`, the RP-LC retention time was 739 s.

`O=C(C1CC1)N1CCC(F)(C(=O)NCC2CC2)CC1`: the RP-LC retention time worked out at 631 s.

`COc1ccc(OC)c(S(=O)(=O)N2CCC(Cc3nncn3C)C2)c1` (stereo not drawn) returned an RP-LC retention time of 619 s.

In the case of `O=C(CCc1ccccc1)NCCc1c[nH]c2ccc(Cl)cc12`, the RP-LC retention time worked out at 895 s.

Consider `O=C(Nc1ccc2c(c1)OCO2)C1CCCN(c2ncc(-c3ccccc3)cn2)C1` (stereo not drawn), for which the RP-LC retention time amounted to 1040 s.

`COc1ccc(C(O)CN2CCN(c3ccccc3C)CC2)cc1` (stereo not drawn) gave an RP-LC retention time of 686 s.

Compound `CC(C)N1CCc2c(sc(NC(=O)COc3ccc(Cl)cc3Cl)c2C(N)=O)C1` showed an RP-LC retention time of 598 s.

On to `COc1cccc(S(=O)(=O)N2CCC(CN3CCCCCC3)CC2)c1`, for which the RP-LC retention time was 642 s.

`O=C(CN1C(=O)CSc2ccc(C(=O)N3CCCCC3)cc21)NCCC1=CCCCC1` registered an RP-LC retention time of 870 s.

As to `Cc1nc(-c2csc(S(=O)(=O)N3CCC(C(=O)N4CCc5ccccc54)CC3)c2)no1`, the RP-LC retention time was found to be 595 s.

Turning to `Cc1ccc2cc(CCC(=O)NCCN3CCOCC3)c(=O)[nH]c2c1`, the RP-LC retention time was determined as 594 s.

Compound `Cc1nn2c(CNS(=O)(=O)c3ccc(Cl)cc3)c(-c3ccccc3)nc2s1` showed an RP-LC retention time of 932 s.

With `O=C(COc1ccc(Br)cc1)NCC(c1cccs1)N1CCCC1` (stereo not drawn), the RP-LC retention time is 672 s.

With `O=C(CCC[C@@H]1[C@H]2CCCN3CCC[C@@H](CN1S(=O)(=O)c1cccs1)[C@@H]23)N1CCOCC1`, the RP-LC retention time stood at 588 s.

`CCOc1ccc(NC(=O)N2C[C@H]3C[C@H](C2)[C@H]2CCCC(=O)N2C3)cc1`: the RP-LC retention time is 654 s.

`COCc1nncn1C1CN(C(=O)Cc2cc(OC)ccc2OC)C1` returned an RP-LC retention time of 610 s.

Turning to `Cc1cccc(NC(=O)N2CCCC2C(=O)N(C)C)c1` (stereo not drawn), the RP-LC retention time amounted to 643 s.

For `OC[C@H]1O[C@@H](n2cnc3c(NC4CCCCC4)ncnc32)C(O)[C@H]1O` (stereo partly drawn), the RP-LC retention time came out at 583 s.

Consider `O=C(Nc1ccc2c(c1)OCCO2)c1noc2c1CCCC2`, for which the RP-LC retention time was 870 s.

Take `C=CCNC(=O)N1CCCN(C2=NS(=O)(=O)C(c3ccc(C)c(C)c3)=C2C)CC1`: the RP-LC retention time is 770 s.

For `Cc1cccc(Nc2c(-c3ccccc3)nc3cnccn23)c1C`, the RP-LC retention time was 981 s.
